Measured values from the supplement of paper PMC10331698.
± gives the standard deviation of the averaged measurements.

Columns and labels:
Experiment in all cases: level (log10 ratio to DMSO vehicle control); higher = higher biomarker level / cell amount than vehicle control
[1] = compound: FC(F)(F)C(F)(F)C(F)(F)C(F)(F)C(F)(F)C(F)(F)CC1CO1 [3-(Perfluorohexyl)-1,2-epoxypropane]; settings: in DMSO
Procedure: (§1)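 BioMAP Diversity Plus panel of 12 human primary cell co-culture systems (3C, 4H, LPS, SAg, BT, BF4T, BE3C, CASM3C, HDF3CGF, KF3CT, MyoF, Mphg). Compounds were added 1 h before stimulation and left for 24 h (MyoF 48 h; BT 72 h for soluble read-outs or 6 d for IgG). Biomarkers were read by ELISA, cytotoxicity by SRB, PBMC viability and proliferation by Alamar Blue. Each well value was divided by the mean of 8 DMSO control wells on the same plate and log10 transformed; duplicate blinded samples were tested at 4 concentrations.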

[2] = compound: NS(=O)(=O)C(F)(F)C(F)(F)C(F)(F)C(F)(F)C(F)(F)C(F)(F)F [Perfluorohexanesulfonamide]; settings: in DMSO
Procedure: as §1

[3] = compound: NC(=O)C(F)(F)C(F)(F)C(F)(F)C(F)F; settings: in DMSO
Procedure: as §1

[4] = compound: O=S(=O)(O)CCC(F)(F)C(F)(F)C(F)(F)C(F)(F)C(F)(F)C(F)(F)F [6:2 Fluorotelomer sulfonic acid]; settings: in DMSO
Procedure: as §1

[5] = compound: FC(F)(F)C(F)(F)C(F)(F)CC1CO1 [1H,1H-Heptafluorobutyl epoxide]; settings: in DMSO
Procedure: as §1

[6] = compound: O=S(=O)(F)C(F)(F)C(F)(F)C(F)(F)C(F)(F)C(F)(F)C(F)(F)C(F)(F)C(F)(F)F [Perfluorooctanesulfonyl fluoride]; settings: in DMSO
Procedure: as §1

[7] = compound: O=S(=O)(O)C(F)(F)C(F)(F)C(F)(F)C(F)(F)C(F)(F)C(F)(F)C(F)(F)C(F)(F)C(F)(F)C(F)(F)F [Sodium perfluorodecanesulfonate]; settings: in DMSO
Procedure: as §1

[8] = compound: C=CC(=O)OCC(F)(F)C(F)(F)C(F)(F)COC(=O)C=C [1H,1H,5H,5H-Perfluoro-1,5-pentanediol diacrylate]; settings: 6700 nM; in DMSO
Procedure: as §1

[9] = compound: FC(F)(F)C(F)(F)C(F)(F)C(F)(F)C(F)(F)C(F)(F)C(F)(F)I [1-Iodopentadecafluoroheptane]; settings: in DMSO
Procedure: as §1

Heptafluorobutyl iodide = compound: FC(F)(F)C(F)(F)C(F)(F)CI [Heptafluorobutyl iodide]; settings: in DMSO
Procedure: as §1

[10] = compound: C=C(C)C(=O)OCCC(F)(F)C(F)(F)C(F)(F)C(F)(F)C(F)(F)C(F)(F)F [6:2 Fluorotelomer methacrylate]; settings: in DMSO
Procedure: as §1

[11] = compound: O=C(O)C=CC(F)(C(F)(F)F)C(F)(F)F [3-(Perfluoroisopropyl)-2-propenoic acid]; settings: in DMSO
Procedure: as §1

Hexafluoroamylene glycol = compound: OCC(F)(F)C(F)(F)C(F)(F)CO [Hexafluoroamylene glycol]; settings: in DMSO
Procedure: as §1

Octafluoroadipamide = compound: NC(=O)C(F)(F)C(F)(F)C(F)(F)C(F)(F)C(N)=O [Octafluoroadipamide]; settings: in DMSO
Procedure: as §1

[12] = compound: COC(=O)C(F)(F)C(F)(F)OC(F)(C(F)(F)F)C(F)(F)OC(F)=C(F)F [Methyl perfluoro(3-(1-ethenyloxypropan-2-yloxy)propanoate)]; settings: in DMSO
Procedure: as §1

[13] = compound: O=C(O)C(F)(F)C(F)(F)C(F)(F)C(F)(F)C(F)(F)C(F)(F)C(F)(F)C(F)(F)C(F)(F)C(F)F [11-H-Perfluoroundecanoic acid]; settings: in DMSO
Procedure: as §1

[14] = compound: O=S(=O)(Cl)C(F)(F)C(F)(F)C(F)(F)C(F)(F)C(F)(F)C(F)(F)C(F)(F)C(F)(F)F [Perfluoro-1-octanesulfonyl chloride]; settings: in DMSO
Procedure: as §1

[15] = compound: FC(F)(F)C(F)(F)CNCC(F)(F)C(F)(F)F [Bis(1H,1H-perfluoropropyl)amine]; settings: in DMSO
Procedure: as §1

Nonafluoropentanamide = compound: NC(=O)C(F)(F)C(F)(F)C(F)(F)C(F)(F)F [Nonafluoropentanamide]; settings: in DMSO
Procedure: as §1

Test System: CASM3C:CD142/Tissue Factor
- level (log10) ([1]; 6700 nM): -0.0085 ± 0.005
- level (log10) ([1]; 20000 nM): -0.0415 ± 0.042
- level (log10) ([1]; 60000 nM): 0.005 ± 0.073
- level (log10) ([2]; 6700 nM): -0.0145 ± 0.023
- level (log10) ([2]; 20000 nM): -0.0275 ± 0.012
- level (log10) ([2]; 60000 nM): 0.0175 ± 0.018
- level (log10) ([3]; 6700 nM): -0.01 ± 0.017
- level (log10) ([3]; 20000 nM): -0.001 ± 0.011
- level (log10) ([3]; 60000 nM): -0.0075 ± 0.00071
- level (log10) ([4]; 6700 nM): -0.01 ± 0.013
- level (log10) ([4]; 20000 nM): -0.0345 ± 0.021
- level (log10) ([4]; 60000 nM): 0.007 ± 0.02
- level (log10) ([5]; 6700 nM): -0.0165 ± 0.016
- level (log10) ([5]; 20000 nM): -0.037 ± 0.027
- level (log10) ([5]; 60000 nM): -0.039 ± 0.02
- level (log10) ([6]; 6700 nM): 0.018 ± 0.0014
- level (log10) ([6]; 20000 nM): 0.0095 ± 0.0035
- level (log10) ([6]; 60000 nM): 0.0025 ± 0.005
- level (log10) ([7]; 1500 nM): 0.044 ± 0.025
- level (log10) ([7]; 4400 nM): -0.0045 ± 0.021
- level (log10) ([7]; 13000 nM): 0.0295 ± 0.036
- level (log10) ([7]; 40000 nM): 0.082 ± 0.016
- level (log10) [8]: -0.0325 ± 0.015
- level (log10) ([9]; 6700 nM): -0.0185 ± 0.016
- level (log10) ([9]; 20000 nM): -0.043 ± 0.024
- level (log10) (Heptafluorobutyl iodide; 6700 nM): 0.0065 ± 0.0035
- level (log10) (Heptafluorobutyl iodide; 20000 nM): -0.0175 ± 0.0035
- level (log10) (Heptafluorobutyl iodide; 60000 nM): 0.0095 ± 0.056
- level (log10) ([10]; 6700 nM): -0.0075 ± 0.033
- level (log10) ([10]; 20000 nM): -0.0175 ± 0.029
- level (log10) ([10]; 60000 nM): -0.0035 ± 0.0078
- level (log10) ([11]; 6700 nM): -0.037 ± 0.028
- level (log10) ([11]; 20000 nM): -0.0315 ± 0.053
- level (log10) ([11]; 60000 nM): -0.01 ± 0.067
- level (log10) (Hexafluoroamylene glycol; 6700 nM): -0.0025 ± 0.016
- level (log10) (Hexafluoroamylene glycol; 20000 nM): -0.0125 ± 0.0035
- level (log10) (Hexafluoroamylene glycol; 60000 nM): 0.008 ± 0.024
- level (log10) (Octafluoroadipamide; 6700 nM): 0.0005 ± 0.028
- level (log10) (Octafluoroadipamide; 20000 nM): -0.006 ± 0.025
- level (log10) (Octafluoroadipamide; 60000 nM): -0.034 ± 0.014
- level (log10) ([12]; 6700 nM): 0.0075 ± 0.022
- level (log10) ([12]; 20000 nM): 0.0285 ± 0.012
- level (log10) ([13]; 6700 nM): -0.031 ± 0.0085
- level (log10) ([13]; 20000 nM): -0.0365 ± 0.012
- level (log10) ([14]; 6700 nM): -0.0095 ± 0.04
- level (log10) ([14]; 20000 nM): -0.0455 ± 0.037
- level (log10) ([14]; 60000 nM): -0.0595 ± 0.032
- level (log10) ([15]; 6700 nM): -0.0175 ± 0.0021
- level (log10) ([15]; 20000 nM): -0.0085 ± 0.054
- level (log10) ([15]; 60000 nM): -0.0095 ± 0.046
- level (log10) (Nonafluoropentanamide; 6700 nM): 0.0195 ± 0.13
- level (log10) (Nonafluoropentanamide; 20000 nM): 0.0125 ± 0.026
- level (log10) (Nonafluoropentanamide; 60000 nM): -0.031 ± 0.028

Test System: CASM3C:Proliferation
- level (log10) ([1]; 6700 nM): 0.001 ± 0.021
- level (log10) ([1]; 20000 nM): -0.0035 ± 0.005
- level (log10) ([1]; 60000 nM): 0.027 ± 0.027
- level (log10) ([2]; 6700 nM): 0.0015 ± 0.013
- level (log10) ([2]; 20000 nM): 0.0285 ± 0.03
- level (log10) ([2]; 60000 nM): 0.0255 ± 0.018
- level (log10) ([3]; 6700 nM): 0.002 ± 0.071
- level (log10) ([3]; 20000 nM): -0.0145 ± 0.023
- level (log10) ([3]; 60000 nM): 0.014 ± 0.025
- level (log10) ([4]; 6700 nM): -0.0095 ± 0.029
- level (log10) ([4]; 20000 nM): 0.024 ± 0.033
- level (log10) ([4]; 60000 nM): 0.026 ± 0.018
- level (log10) ([5]; 6700 nM): -0.0175 ± 0.021
- level (log10) ([5]; 20000 nM): -0.046 ± 0.05
- level (log10) ([5]; 60000 nM): -0.026 ± 0.064
- level (log10) ([6]; 6700 nM): -0.0125 ± 0.044
- level (log10) ([6]; 20000 nM): -0.0265 ± 0.032
- level (log10) ([6]; 60000 nM): 0.0095 ± 0.0064
- level (log10) ([7]; 1500 nM): 0.017 ± 0.0057
- level (log10) ([7]; 4400 nM): 0.0585 ± 0.061
- level (log10) ([7]; 13000 nM): -0.006 ± 0.059
- level (log10) ([7]; 40000 nM): 0.0275 ± 0.03
- level (log10) [8]: -0.289 ± 0.086
- level (log10) ([9]; 6700 nM): -0.003 ± 0.027
- level (log10) ([9]; 20000 nM): -0.045 ± 0.0042
- level (log10) (Heptafluorobutyl iodide; 6700 nM): -0.008 ± 0.0085
- level (log10) (Heptafluorobutyl iodide; 20000 nM): 0.0235 ± 0.018
- level (log10) (Heptafluorobutyl iodide; 60000 nM): 0.008 ± 0.024
- level (log10) ([10]; 6700 nM): -0.0395 ± 0.046
- level (log10) ([10]; 20000 nM): -0.042 ± 0.031
- level (log10) ([10]; 60000 nM): 0.0115 ± 0.0092
- level (log10) ([11]; 6700 nM): 0.0035 ± 0.019
- level (log10) ([11]; 20000 nM): -0.009 ± 0.0085
- level (log10) ([11]; 60000 nM): 0.009 ± 0.059
- level (log10) (Hexafluoroamylene glycol; 6700 nM): -0.0005 ± 0.0021
- level (log10) (Hexafluoroamylene glycol; 20000 nM): -0.0235 ± 0.0092
- level (log10) (Hexafluoroamylene glycol; 60000 nM): 0.007 ± 0.0014
- level (log10) (Octafluoroadipamide; 6700 nM): -0.029 ± 0.023
- level (log10) (Octafluoroadipamide; 20000 nM): -0.0165 ± 0.05
- level (log10) (Octafluoroadipamide; 60000 nM): -0.037 ± 0.051
- level (log10) ([12]; 6700 nM): -0.012 ± 0.065
- level (log10) ([12]; 20000 nM): 0.036 ± 0.05
- level (log10) ([13]; 6700 nM): -0.0495 ± 0.015
- level (log10) ([13]; 20000 nM): 0.0005 ± 0.043
- level (log10) ([14]; 6700 nM): -0.011 ± 0.078
- level (log10) ([14]; 20000 nM): 0.007 ± 0.031
- level (log10) ([14]; 60000 nM): -0.009 ± 0.011
- level (log10) ([15]; 6700 nM): -0.115 ± 0.024
- level (log10) ([15]; 20000 nM): 0.0135 ± 0.037
- level (log10) ([15]; 60000 nM): -0.0005 ± 0.076
- level (log10) (Nonafluoropentanamide; 6700 nM): -0.032 ± 0.058
- level (log10) (Nonafluoropentanamide; 20000 nM): -0.017 ± 0.03
- level (log10) (Nonafluoropentanamide; 60000 nM): -0.0505 ± 0.035
